# From patent US4873088A, “Liposome drug delivery method and composition” (priority 1987, dated 1989)
# What was measured:
# [1] = both compounds in the free form; cited from earlier work
# YAC-1 lymphoma cells [2] = assay: PEC NK activity with and without anti-Asialo GM1 antibody + complement; format: cell-based, mice; details: PEC 7 days after treatment; for NK activity, specific 51Cr release, Untreated: no antibody
# Experimental: In order to verify that the effector cells in the PEC population that were active against YAC-1 cells had.NK properties, PECs were treated with anti-Asialo GMI antiserum and complement in vitro prior to the 4 hr toxicity assay for PECs.
# Anti-Asialo GM1 antibody was added directly to PEC in the microwells at a final dilution of 1:20. After 30 min on ice the cultured effector cells were spun down, supernatant removed and the cells resuspended. Low toxicity rabbit complement was added (final dilution 1:20) and the cultures incubated for 45 min. After 3 washings, the PECs (5×10^5) were cultures with 10^4 radio-labeled YAC-1 cells, and radioactivity released was assayed after 4 hours.
# [3] = PEC ADM content by fluorescence after i.p. administration; format: in vivo, mice
# Experimental: ADM was extracted from 10^6 PEC/sample by sonication in 36.5% HCl: absolute ethanol (1:11) in an ice bath for 5 min. This sonicated lysate was centrifuged (12,150×g) for 20 min at 4-6 C. The supernatant was measured for fluorescence at 468 nm excitation and 585 nm emission using a Perkin-Elmer (Model 650-10S) spectrofluorometer.
# YAC-1 lymphoma cells [4] = assay: Splenic NK activity against YAC-1 cells (51Cr release); format: cell-based, mice
# Experimental: Fresh spleen cells were added to ^51 Cr labeled YAC-1 cells at different effector to target cell ratios.
# IL-2 = IL-2 activity of adherent PEC culture supernatants (IL-2 dependent CTCL-1 line); format: cell-based
# Experimental: The purpose is to determine if the enhanced macrophage tumoricidal activity and NK activity detailed above correlates with increases in either IL-1 or IL-2.
# (§1) The cells were cultured for 18 hours with the concentrations of LPS indicated below in Table 4.
# The procedure used for assaying IL-2 has been described (Ehrke, 1986). Briefly, using a long term, IL-2 dependent cytolytic T cell line (CTCL-1), 10^4 cells in 0.1 ml were added to 0.1 ml volumes of conditioned media from adherent PEC cultures. The cells were incubated for 24 h and pulsed with [^3 H]Thd ([…]) 4 h before harvest. Results were expressed as the arithmetic mean of cpm dThd uptake ±S.D. A semipurified, rat IL-2 preparation was used as a positive control.
# [5] = Acute and chronic toxicity (LD50) after single i.v. dose in healthy mice; details: mouse, in vivo, iv
# Experimental: The toxicity of the three ADM preparations in Table 1 above was tested against healthy DMA 2J mice.
# The data are expressed in terms of LD50, i.e. the dosage (in mg drug per kilogram of animal body weight) which produces death in half the animals receiving the drug. […] The number of mice available for determination of chronic toxicity (survival of acute toxicity) varied from between about 2 and 10 mice per group.
# L1210 leukemia cells = assay: Acute therapeutic effect (mean survival time) in mice injected i.p. with 10^6 L1210 leukemia cells, i.v. ADM; format: in vivo, DBA 2J mice; details: one day after L1210
# Experimental: The day of death of the animals was recorded, and the mean survival time of each group was calculated. Each group contained from between 6 and 10 mice.
# IL-1 = IL-1 like activity of adherent PEC culture supernatants (thymocyte comitogenic assay); format: cell-based, C3H/Hej mice
# Experimental: as §1
# A standard thymocyte comitogenic assay for IL-1 was used to test 18 h adherent PEC culture supernatants for IL1 like activity. Thymopytes (5×10^5) from C3H/Hej mice were added in 0.1 ml/well to flat bottom, 96 well plates. An equal volume of adherent PEC culture supernatant was added for a final volume of 0.2 ml. To facilitate a proliferative response, the media was supplemented with PHA ([…]) and 2-mercaptoethanol ([…]). Cultures were incubated for 72 h. Four hours before harvesting, the cultures were pulsed with [^3 H]dThd (New England Nuclear, 2 Ci/mole; […]).
# Cells were harvested on glass fiber filters with an Otto Hiller cell harvester. The radioactivity was measured by scintillation counting using a Beckmann counter (Model LS 7000). Thymidine uptake by the thymocytes was expressed as mean cpm±S.D.
compound,measurement,setting,value
"Cc1c(C)c2c(c(C)c1O)CCC(C)(CCCC(C)CCCC(C)CCCC(C)C)O2 (stereo not drawn) [alpha-tocopherol (vitamin E), alpha-tocopherol]",cardiotoxicity of ADM (in words),[1],reduce the cardiotoxicity of ADM in animals
"COc1cccc2c1C(=O)c1c(O)c3c(c(O)c1C2=O)C[C@@](O)(C(=O)CO)C[C@@H]3O[C@H]1C[C@H](N)[C@H](O)[C@H](C)O1 [free ADM, doxorubicin]","NK activity, specific 51Cr release, Asialo GM1 Antibody + Complement",YAC-1 lymphoma cells [2]; Exp. No. 1,3.4 ± 0.9%
same,"NK activity, specific 51Cr release, Untreated",YAC-1 lymphoma cells [2]; Exp. No. 1,16.9 ± 2.6%
same,"NK activity, specific 51Cr release, Asialo GM1 Antibody + Complement",YAC-1 lymphoma cells [2]; Exp. No. 2,0.2 ± 0.8%
same,"NK activity, specific 51Cr release, Untreated",YAC-1 lymphoma cells [2]; Exp. No. 2,18.9 ± 1.4%
same,ADM Equivalents in PEC,"[3]; Day 4, i.p.",4.2 ± 0.5 ng ADM/10^6 PECs
same,ADM Equivalents in PEC,"[3]; Day 7, i.p.",1.4 ± 0.4 ng ADM/10^6 PECs
same,ADM Equivalents in PEC,"[3]; Day 11, i.p.",0.2 ± 0.2 ng ADM/10^6 PECs
same,duration of suppression of splenic NK (in words),YAC-1 lymphoma cells [4],transient
same,splenic NK suppression (in words),YAC-1 lymphoma cells [4]; 7 or 11 days before sacrifice,suppression was not observed
same,splenic NK activity (in words),YAC-1 lymphoma cells [4]; 4 days following treatment,reduced
same,IL-2 activity (dThd uptake),IL-2; LPS 0 ng/ml,285 ± 86 cpm
same,IL-2 activity (dThd uptake),IL-2; LPS 0.001-1000 ng/ml,286 ± 74 cpm
same,IL-2 activity (in words),IL-2; with or without LPS activation,about background
same,LD50 at 2880 h,"[5]; death between 50 and 120 days, read-out: Mean LD50 ± S.D., chronic",12 ± 5 mg/kg
same,LD50 at 336 h,"[5]; death within 14 days, read-out: Mean LD50 ± S.D., acute",20 ± 5 mg/kg
same,Mean Survival Time ± S.D.,L1210 leukemia cells; 10 mg/kg ADM,18.4 ± 1.8 days
same,Mean Survival Time ± S.D.,L1210 leukemia cells; 20 mg/kg ADM,12.2 ± 1.6 days
same,IL-1 activity (thymidine uptake by thymocytes),IL-1; LPS 0 ng/ml,9142 ± 1179 cpm
same,IL-1 activity (thymidine uptake by thymocytes),IL-1; LPS 0.001 ng/ml,9693 ± 230 cpm
same,IL-1 activity (thymidine uptake by thymocytes),IL-1; LPS 0.1 ng/ml,11588 ± 953 cpm
same,dependence of IL-1-like activity on LPS (in words),"IL-1; LPS 0.001 to 1,000 ng/ml",no significant increase in this activity from ADM PEC was observed with LPS exposure
